What was measured:
[1] = target: Alpha-1-acid glycoprotein 2 (Homo sapiens, UniProt P19652); assay: Binding affinity to human ORM2 at 37 degC by induced circular dichroism method
Homo sapiens [2] = species: Homo sapiens; assay: Binding affinity to human AAG at 37 degC by induced circular dichroism method
Albumin [3] = target: T1, Albumin (Homo sapiens, UniProt P02768); assay: Binding affinity to human serum albumin on sepharose column by affinity chromatography; type: ADME; details: isolated protein
Homo sapiens [4] = species: Homo sapiens; assay: Displacement of quinaldine red from human AAG by fluorescence method
[5] = target: Alpha-1-acid glycoprotein 1 (Homo sapiens, UniProt P02763); assay: Binding affinity to human ORM1 at 37 degC by induced circular dichroism method
Albumin [6] = target: T1, Albumin; assay: Binding affinity to human serum albumin by circular dichroism and UV/VIS spectroscopic method; type: ADME; details: isolated protein
Homo sapiens [7] = species: Homo sapiens; assay: Binding affinity to human AAG by fluorescence emission spectra
Homo sapiens [8] = species: Homo sapiens; assay: Binding affinity to human AAG at 23 degC by induced circular dichroism method
Albumin [9] = target: T1, Albumin; assay: Binding affinity to human serum albumin by fluorescence emission spectra; type: ADME; details: isolated protein

T1 sequence (P02768 whole entry): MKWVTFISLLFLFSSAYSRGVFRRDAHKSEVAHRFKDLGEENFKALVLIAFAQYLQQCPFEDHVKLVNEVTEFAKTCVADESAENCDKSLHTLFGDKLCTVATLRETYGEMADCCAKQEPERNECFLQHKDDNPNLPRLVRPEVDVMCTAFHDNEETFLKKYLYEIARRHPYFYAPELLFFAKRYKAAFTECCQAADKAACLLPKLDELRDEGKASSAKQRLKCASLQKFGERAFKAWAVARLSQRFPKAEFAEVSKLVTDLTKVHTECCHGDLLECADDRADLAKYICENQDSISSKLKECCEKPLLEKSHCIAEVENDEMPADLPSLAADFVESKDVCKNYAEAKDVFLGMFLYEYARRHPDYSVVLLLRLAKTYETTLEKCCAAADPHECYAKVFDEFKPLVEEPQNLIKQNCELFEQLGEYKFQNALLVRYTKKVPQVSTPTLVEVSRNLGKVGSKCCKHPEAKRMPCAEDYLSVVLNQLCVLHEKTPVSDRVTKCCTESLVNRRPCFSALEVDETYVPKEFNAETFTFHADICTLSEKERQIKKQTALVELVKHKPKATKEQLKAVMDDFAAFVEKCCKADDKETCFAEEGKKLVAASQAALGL
Sequence of Alpha-1-acid glycoprotein 1 (P02763 whole entry): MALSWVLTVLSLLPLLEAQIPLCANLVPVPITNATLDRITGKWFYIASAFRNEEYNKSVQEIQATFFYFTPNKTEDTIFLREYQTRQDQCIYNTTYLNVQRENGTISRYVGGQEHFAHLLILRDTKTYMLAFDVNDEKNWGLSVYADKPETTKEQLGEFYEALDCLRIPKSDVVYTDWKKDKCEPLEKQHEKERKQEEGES
Sequence of Alpha-1-acid glycoprotein 2 (P19652 whole entry): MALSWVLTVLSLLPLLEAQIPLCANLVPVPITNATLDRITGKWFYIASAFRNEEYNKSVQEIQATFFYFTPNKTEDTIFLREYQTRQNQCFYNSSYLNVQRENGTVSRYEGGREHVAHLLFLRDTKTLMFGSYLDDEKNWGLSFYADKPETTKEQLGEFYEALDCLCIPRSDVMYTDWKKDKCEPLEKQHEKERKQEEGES

For `CCN(CC)CCCC(C)Nc1c2ccc(Cl)cc2nc2ccc(OC)cc12.Cl.Cl` (stereo not given) [QUINACRINE DIHYDROCHLORIDE], the Ka [1] was 3.7 10^5/M.

`CCN(CC)CCCC(C)Nc1c2ccc(Cl)cc2nc2ccc(OC)cc12` (stereo not given) was tested, and the Ka (Homo sapiens [2]) was 2.3 10^5/M.

For `OC(c1cc(C(F)(F)F)nc2c(C(F)(F)F)cccc12)C1CCCCN1` (stereo not given) [MEFLOQUINE], the Ka (Albumin [3]) was 8 10^4/M and the Ka (Homo sapiens [4]) was 8.7 10^5/M.

In the case of `CCN(CC)CCCC(C)Nc1ccnc2cc(Cl)ccc12` (stereo not given) [CHLOROQUINE], the Ka (Albumin [3]) is reported as 2 10^3/M and the Ka (Homo sapiens [4]) is reported as 0.3 10^5/M.

In the case of `CCN(CC)Cc1cc(Nc2ccnc3cc(Cl)ccc23)ccc1O.Cl.Cl.Cl`, the Ka [5] is reported as 5.8 10^4/M.

`COc1cc(C)c2c(Oc3cccc(C(F)(F)F)c3)c(OC)cc(NC(C)CCCN)c2n1` (stereo not given) [TAFENOQUINE] was tested, and the Ka (Albumin [6]) was 24000 M⁻¹, the Ka (Albumin [3]) was 3 10^5/M and the Ka (Homo sapiens [7]) was 1.6 10^6/M. The Ka (Homo sapiens [8]) was 1.1 10^6/M, the Ka (Homo sapiens [2]) was 3.3 10^5/M and the Ka (Albumin [9]) was 3 10^5/M. The Ka (Homo sapiens [4]) was 1.8 10^6/M.

In the case of `CCN(CC)Cc1cc(Nc2ccnc3cc(Cl)ccc23)ccc1O.Cl`, the Ka (Albumin [6]) is reported as 6200 M⁻¹ and the Ka (Albumin [3]) is reported as 2 10^4/M.

In the case of `CC#C[C@]1(O)CC[C@H]2[C@@H]3CCC4=CC(=O)CCC4=C3[C@@H](c3ccc(N(C)C)cc3)C[C@@]21C`, the Ka (Homo sapiens [4]) is reported as 4 10^6/M.

`CCN(CC)CCCC(C)Nc1c2ccc(Cl)cc2nc2ccc(OC)cc12` (stereo not given) [QUINACRINE] was tested, and the Ka (Albumin [3]) was 7 10^3/M.

For `CC(C)NCC(O)COc1cccc2ccccc12` (racemic), the Ka (Homo sapiens [4]) was 1.5 10^5/M.

With `CC(=O)O[C@H]1N=C(c2ccccc2Cl)c2cc(Cl)ccc2NC1=O` the Ka (Albumin [3]) was 2 10^4/M.

In the case of `CC(=O)O[C@@H]1N=C(c2ccccc2)c2cc(Cl)ccc2NC1=O`, the Ka (Albumin [3]) is reported as 8 10^4/M.

With `CC(=O)O[C@@H]1N=C(c2ccccc2Cl)c2cc(Cl)ccc2NC1=O` the Ka (Albumin [3]) was 4 10^4/M.

In the case of `COc1cc(NC(C)CCCN)c2ncccc2c1` (stereo not given) [PRIMAQUINE], the Ka (Albumin [3]) is reported as 7 10^3/M.

In the case of `COc1cc(NC(C)CCCN)c2ncccc2c1` (stereo not given), the Ka (Homo sapiens [2]) is reported as 4.1 10^5/M and the Ka (Homo sapiens [4]) is reported as 4.2 10^5/M.

In the case of `CCN(CC)Cc1cc(Nc2ccnc3cc(Cl)ccc23)ccc1O`, the Ka (Homo sapiens [2]) is reported as 4.8 10^4/M and the Ka (Homo sapiens [4]) is reported as 1.1 10^5/M.

With `CC(=O)O[C@H]1N=C(c2ccccc2)c2cc(Cl)ccc2NC1=O` the Ka (Albumin [3]) was 1 10^4/M.

`COc1cc(NC(C)CCCN)c2ncccc2c1.O=P(O)(O)O.O=P(O)(O)O` (stereo not given) [PRIMAQUINE PHOSPHATE] was tested, and the Ka [5] was 8 10^5/M.

For `CN(C)CCCN1c2ccccc2Sc2ccc(Cl)cc21`, the Ka (Homo sapiens [4]) was 8.4 10^5/M.

— ChEMBL document CHEMBL1145548, “Selective plasma protein binding of antimalarial drugs to alpha1-acid glycoprotein” (Bioorg Med Chem, 2008)
